In US11332459B2 (TEIJIN PHARMA LIMITED, priority 2017, dated 2022):
Structures can show the parent of a compound that is named as a salt.

These compounds were tested against T1, human TRPC6 (Homo sapiens, UniProt Q9Y210) (assay: TRPC6 calcium flux assay (FLIPR, OAG-stimulated calcium influx)). Conditions: HEK293 cells stably transfected with human TRPC6, read-out: hTRPC6 Potency.
T1 construct: expressed in transfected cells
T1 sequence (Q9Y210 1-931): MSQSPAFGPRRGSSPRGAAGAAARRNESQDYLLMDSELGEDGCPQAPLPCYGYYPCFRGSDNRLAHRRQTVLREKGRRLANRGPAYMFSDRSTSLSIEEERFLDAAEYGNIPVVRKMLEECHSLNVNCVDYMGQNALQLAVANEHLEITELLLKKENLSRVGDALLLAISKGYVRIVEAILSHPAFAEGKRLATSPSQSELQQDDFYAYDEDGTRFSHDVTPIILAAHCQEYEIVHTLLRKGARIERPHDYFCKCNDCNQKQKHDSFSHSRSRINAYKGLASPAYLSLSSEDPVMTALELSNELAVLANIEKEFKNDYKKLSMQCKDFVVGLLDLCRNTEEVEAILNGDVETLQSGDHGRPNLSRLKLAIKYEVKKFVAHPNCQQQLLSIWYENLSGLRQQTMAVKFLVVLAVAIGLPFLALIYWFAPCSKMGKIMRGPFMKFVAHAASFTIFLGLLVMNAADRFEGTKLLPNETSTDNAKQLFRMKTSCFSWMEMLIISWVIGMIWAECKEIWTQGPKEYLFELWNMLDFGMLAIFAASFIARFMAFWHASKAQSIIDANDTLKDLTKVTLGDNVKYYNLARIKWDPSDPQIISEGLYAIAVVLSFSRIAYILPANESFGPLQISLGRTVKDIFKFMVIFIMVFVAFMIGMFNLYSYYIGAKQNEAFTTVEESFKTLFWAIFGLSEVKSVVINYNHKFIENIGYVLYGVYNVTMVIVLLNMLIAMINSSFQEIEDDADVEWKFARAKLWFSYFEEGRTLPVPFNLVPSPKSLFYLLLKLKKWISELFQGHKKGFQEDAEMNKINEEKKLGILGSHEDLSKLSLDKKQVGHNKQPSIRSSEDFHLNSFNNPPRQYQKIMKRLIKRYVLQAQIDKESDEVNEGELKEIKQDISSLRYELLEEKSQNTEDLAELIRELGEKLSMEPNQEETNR
Type: cell-based
How it was run: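 HEK293 cells stably expressing human TRPC6, loaded with calcium dye 90–120 min at RT, then given compound for 25 min before OAG (50 uM final, 0.5% DMSO) in HEPES buffer pH 7.2 with 2 mM CaCl2. Background-subtracted FLIPR peak over 180 s normalized to OAG vs buffer; IC50 from dose plot.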

Q: For `CN(C)C(=O)Cn1c(N2CC[C@@H](F)[C@H](N)C2)nc2cc(OC(F)(F)F)ccc21` [Example 474, 2-(2-((3R,4R)-3-amino-4-fluoropiperidin-1-yl)-5-(trifluoromethoxy)-1H-benzo[d]imidazol-1-yl)-N,N-dimethylacetamide], which IC50 is on record?
A: 411 nM

Q: For `N#Cc1ccc(Cn2c(N3CC[C@@H](F)[C@H](N)C3)nc3cc(Cl)c(Cl)cc32)nc1` [Example 43, 6-((2-((3R,4R)-3-amino-4-fluoropiperidin-1-yl)-5,6-dichloro-1H-benzo[d]imidazol-1-yl)methyl)nicotinonitrile], which IC50 is on record?
A: 0.581 nM

Q: How did the IC50 turn out when `N#Cc1ccc(Cn2c(N3CC[C@@H](F)[C@H](N)C3)nc3cc(F)ccc32)nc1` [Example 49, 6-((2-((3R,4R)-3-amino-4-fluoropiperidin-1-yl)-5-fluoro-1H-benzo[d]imidazol-1-yl)methyl)nicotinonitrile hydrochloride] was run?
A: 1.09 nM

Q: How did the IC50 turn out when `CN(CC(F)(F)F)C(=O)Cn1c(N2CC[C@@H](F)[C@H](N)C2)nc2cc(Cl)ccc21` [Example 570, 2-(2-((3R,4R)-3-amino-4-fluoropiperidin-1-yl)-5-chloro-1H-benzo[d]imidazol-1-yl)-N-methyl-N-(2,2,2-trifluoroethyl)acetamide] was run?
A: 85.4 nM

Q: With `N#Cc1ccc(Cn2c(N3CCC[C@H](N)C3)nc3cc(F)ccc32)nc1` [Example 46, (S)-6-((2-(3-aminopiperidin-1-yl)-5-fluoro-1H-benzo[d]imidazol-1-yl)methyl)nicotinonitrile hydrochloride] as the compound, how does the IC50 read?
A: 1.78 nM

Q: How did the IC50 turn out when `N[C@@H]1CCCN(c2nc3ccccc3n2Cc2ccc(C(F)(F)F)cc2)C1` [Example 375, (R)-1-(1-(4-(trifluoromethyl)benzyl)-1H-benzo[d]imidazol-2-yl)piperidin-3-amine] was run?
A: 2770 nM

Q: `N#Cc1ccc2nc(N3CC[C@H](F)[C@H](N)C3)n(Cc3ncc(Cl)cn3)c2c1` [Example 203, 2-((3R,4S)-3-amino-4-fluoropiperidin-1-yl)-1-((5-chloropyrimidin-2-yl)methyl)-1H-benzo[d]imidazole-6-carbonitrile] was tested. Which IC50 did it give?
A: 598 nM

Q: How did the IC50 turn out when `COC[C@@H]1COCCN1C(=O)Cn1c(N2CC[C@@H](F)[C@H](N)C2)nc2ccc(F)cc21` [Example 680, 2-(2-((3R,4R)-3-amino-4-fluoropiperidin-1-yl)-6-fluoro-1H-benzo[d]imidazol-1-yl)-1-((R)-3-(methoxymethyl)morpholino) ethan-1-one] was run?
A: 153 nM

Q: Which IC50 does the source give for `Cc1cc(Cn2c(N3CC[C@@H](F)[C@H](N)C3)nc3cc(F)c(F)cc32)on1` [Example 579, (3R,4R)-1-(5,6-difluoro-1-((3-methylisoxazol-5-yl)methyl)-1H-benzo[d]imidazol-2-yl)-4-fluoropiperidin-3-amine] here?
A: 312 nM

Q: Which IC50 does the source give for `C[C@H](c1ccc(Cl)cn1)n1c(N2CC[C@@H](F)[C@H](N)C2)nc2ccccc21` [Example 215, (3R,4R)-1-(1-((R)-1-(5-chloropyridin-2-yl)ethyl)-1H-benzo[d]imidazol-2-yl)-4-fluoropiperidin-3-amine hydrochloride] here?
A: 593 nM

Q: How did the IC50 turn out when `N#Cc1ccc(Cn2c(N3C[C@@H](N)[C@H](c4ccccc4)C3)nc3ccccc32)cc1` (racemic) [Example 165, 4-((2-((3S,4R)-3-amino-4-phenylpyrrolidin-1-yl)-1H-benzo[d]imidazol-1-yl)methyl)benzonitrile & 4-((2-((3R,4S)-3 amino-4-phenylpyrrolidin-1-yl)-1H-benzo[d]imidazol-1-yl)methyl)benzonitrile] was run?
A: 2060 nM

Q: With `N#Cc1ccc(Cn2c(N3C[C@@H]4OCCN[C@@H]4C3)nc3ccccc32)nc1` [Example 98, 6-((2-((4aR,7aS)-hexahydropyrrolo[3,4-b][1,4]oxazin-6(2H)-yl)-1H-benzo[d]imidazol-1-yl)methyl)nicotinonitrile hydrochloride] as the compound, how does the IC50 read?
A: > 3750 nM

Q: How did the IC50 turn out when `N[C@@H]1CN(c2nc3cc(F)c(F)cc3n2CC(=O)O)CC[C@H]1F` [Example 437, 2-(2-((3R,4R)-3-amino-4-fluoropiperidin-1-yl)-5,6-difluoro-1H-benzo[d]imidazol-1-yl)acetic acid] was run?
A: > 3750 nM

Q: For `N#Cc1ccc(Cn2c(N3CC[C@@H](F)[C@H](N)C3)nc3ccc(OC(F)F)cc32)nc1` [Example 118, 6-((2-((3R,4R)-3-amino-4-fluoro-1-piperidinyl)-6-(difluoromethoxy)-1H-benzimidazol-1-yl)methyl)-3-pyridinecarbonitrile], which IC50 is on record?
A: 0.855 nM

Q: `C[C@H](c1ccc(C#N)cc1)n1c(N2CC[C@@H](F)[C@H](N)C2)nc2ccccc21` [Example 319, 4-((R)-1-(2-((3R,4R)-3-amino-4-fluoropiperidin-1-yl)-1H-benzo[d]imidazol-1-yl)ethyl)benzonitrile hydrochloride] was tested. Which IC50 did it give?
A: 456 nM

Q: For `N#Cc1ccc(Cn2c(N3CC[C@@H](F)[C@H](N)C3)nc3ccc(C(F)(F)F)cc32)nc1` [Example 14, 6-((2-((3R,4R)-3-amino-4-fluoropiperidin-1-yl)-6-(trifluoromethyl)-1H-benzo[d]imidazol-1-yl)methyl)nicotinonitrile], which IC50 is on record?
A: 0.377 nM

Q: Which IC50 does the source give for `N#Cc1ccc(Cn2c(N3CC[C@@H](F)[C@H](N)C3)nc3cc(C(F)(F)F)c(F)cc32)nc1` [Example 21, 6-((2-((3R,4R)-3-amino-4-fluoropiperidin-1-yl)-6-fluoro-5-(trifluoromethyl)-1H-benzo[d]imidazol-1-yl)methyl)nicotinonitrile] here?
A: 0.658 nM

Q: With `N[C@@H]1CN(c2nc3cc(F)c(F)cc3n2Cc2ccc(C(F)(F)F)cc2)CC[C@H]1F` [Example 361, (3R,4R)-1-(5,6-difluoro-1-(4-(trifluoromethyl)benzyl)-1H-benzimidazol-2-yl)-4-fluoro-3-piperidinamine] as the compound, how does the IC50 read?
A: 66.8 nM

Q: For `CC(=O)NC1CCCN(C(=O)Cn2c(N3CC[C@@H](F)[C@H](N)C3)nc3cc(F)c(F)cc32)C1` (stereo partly drawn) [Example 535, N-(1-(2-(2-((3R,4R)-3-amino-4-fluoropiperidin-1-yl)-5,6-difluoro-1H-benzo[d]imidazol-1-yl)acetyl)piperidin-3-yl)acetamide], which IC50 is on record?
A: > 3750 nM

Q: Which IC50 does the source give for `N[C@@H]1CN(c2nc3cc(F)cc(F)c3n2Cc2ncc(Cl)cn2)CC[C@H]1F` [Example 257, (3R,4R)-1-(1-((5-chloro-2-pyrimidinyl)methyl)-5,7-difluoro-1H-benzimidazol-2-yl)-4-fluoro-3-piperidinamine] here?
A: 52.4 nM

Q: With `N#Cc1ccc(Cn2c(N3CC[C@@H](F)[C@H](N)C3)nc3ccc(OC(F)(F)F)cc32)nc1` [Example 19, 6-((2-((3R,4R)-3-amino-4-fluoropiperidin-1-yl)-6-(trifluoromethoxy)-1H-benzo[d]imidazol-1-yl)methyl)nicotinonitrile] as the compound, how does the IC50 read?
A: 0.956 nM

Q: Which IC50 does the source give for `CN1CC[C@H](n2c(N3CC[C@@H](F)[C@H](N)C3)nc3cc(F)c(F)cc32)C1=O` [Example 245, (S)-3-(2-((3R,4R)-3-amino-4-fluoropiperidin-1-yl)-5,6-difluoro-1H-benzo[d]imidazol-1-yl)-1-methylpyrrolidin-2-one] here?
A: 62.5 nM

Q: Which IC50 does the source give for `N#Cc1ccc(Cn2c(N3CC[C@@H](F)[C@H](N)C3)nc3ccc(Cl)cc32)cc1` [Example 420, 4-((2-((3R,4R)-3-amino-4-fluoropiperidin-1-yl)-6-chloro-1H-benzo[d]imidazol-1-yl)methyl)benzonitrile hydrochloride] here?
A: 0.6 nM

Q: Which IC50 does the source give for `N[C@@H]1CN(c2nc3cc(F)c(F)cc3n2CC(=O)N(CC(F)F)C2CC2)CC[C@H]1F` [Example 631, 2-(2-((3R,4R)-3-amino-4-fluoropiperidin-1-yl)-5,6-difluoro-1H-benzo[d]imidazol-1-yl)-N-cyclopropyl-N-(2,2-difluoroethyl)acetamide] here?
A: 225 nM

Q: How did the IC50 turn out when `N[C@@H]1CN(c2nc3cc(F)c(F)cc3n2[C@H]2CCN(C3CCOCC3)C2=O)CC[C@H]1F` [Example 548, (S)-3-(2-((3R,4R)-3-amino-4-fluoropiperidin-1-yl)-5,6-difluoro-1H-benzo[d]imidazol-1-yl)-1-(tetrahydro-2H-pyran-4-yl)pyrrolidin-2-one] was run?
A: 382 nM

Q: `C[C@H]1CCCN1C(=O)Cn1c(N2CC[C@@H](F)[C@H](N)C2)nc2ccc(F)cc21` [Example 682, 2-(2-((3R,4R)-3-amino-4-fluoropiperidin-1-yl)-6-fluoro-1H-benzo[d]imidazol-1-yl)-1-((S)-2-methylpyrrolidin-1-yl)ethan-1-one] was tested. Which IC50 did it give?
A: 259 nM

Q: `N#Cc1ccc(Cn2c(N3C[C@H]4CC[C@H](N)[C@H]4C3)nc3ccccc32)nc1` [Example 78, 6-((2-((3aR,4S,6aS)-4-aminohexahydrocyclopenta[c]pyrrol-2(1H)-yl)-1H-benzo[d]imidazol-1-yl)methyl)nicotinonitrile hydrochloride] was tested. Which IC50 did it give?
A: 70.7 nM
